Read-outs that look alike come from different tables or passages of the source.
Experiments:
[1] = target: A2 adenosine receptors (Rattus norvegicus, UniProt P30543); assay: Inhibition of binding of [3H]N-ethylcarboxamidoadenosine to A2-adenosine receptors in rat striatal membranes; conditions: for A2 affinity/potency, in words: relative to the analogs named in the text
Method: Affinity at A1 - and A2 -adenosine receptors was measured in competitive binding assays, using as radioligands [^3 H]N^6 -phenylisopropyladenosine^17 (with rat cerebral cortical membranes) and [^3 H]5'-N-ethylcarboxamidoadenosine (with rat striatal membranes),^18 respectively.
N^6 -Cyclopentyladenosine was present at 50 nM to inhibit binding of the ligand at A1 -adenosine receptors. Inhibition of binding by a range of concentrations of xanthines was assessed in triplicate in at least three separate experiments. IC50 -values were converted to Ki-values by the method of Bruns et al,^18 using a conversion factor derived from the affinity of [^3 H]N-ethylcarboxamidoadenosine at A2 receptors and the Cheng-Prusoff equation.^19

[2] = target: T1, A1 adenosine receptors (Rattus norvegicus, UniProt P25099); assay: Inhibition of binding of [3H]N6-phenylisopropyladenosine to A1 adenosine receptors in rat cerebral cortical membranes; conditions: for Ki (A2)/Ki (A1): ratio of A2 (rat striatum) to A1 (rat cortex) Ki; for fold less potent at A1-receptors: 6-thio analog versus oxygen analog (CPX or DPX, 24); for A1 affinity/potency, in words: relative to the analogs named in the text
T1 construct: A1 adenosine receptors in rat cerebral cortical membranes; from tissue; host or cells: rat cerebral cortex membranes
T1 sequence (P25099 1-326): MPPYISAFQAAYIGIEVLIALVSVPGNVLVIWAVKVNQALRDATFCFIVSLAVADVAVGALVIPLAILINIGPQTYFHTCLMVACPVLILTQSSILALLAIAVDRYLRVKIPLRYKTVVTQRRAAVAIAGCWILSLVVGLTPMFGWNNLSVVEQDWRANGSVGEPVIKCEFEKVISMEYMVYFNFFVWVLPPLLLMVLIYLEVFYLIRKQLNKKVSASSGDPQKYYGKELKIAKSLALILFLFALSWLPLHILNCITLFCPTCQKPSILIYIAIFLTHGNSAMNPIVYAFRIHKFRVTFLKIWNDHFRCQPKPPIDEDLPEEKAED

[3] = rat cortical membranes, [3H]PIA, single determination in triplicate or average of three ± S.E.M., read-out: Ki A1-receptors
[4] = read-out: Ki A2-receptors, rat striatal membranes, [3H]NECA, single determination in triplicate or average of three ± S.E.M.

Sequence of A2 adenosine receptors (P30543 whole entry): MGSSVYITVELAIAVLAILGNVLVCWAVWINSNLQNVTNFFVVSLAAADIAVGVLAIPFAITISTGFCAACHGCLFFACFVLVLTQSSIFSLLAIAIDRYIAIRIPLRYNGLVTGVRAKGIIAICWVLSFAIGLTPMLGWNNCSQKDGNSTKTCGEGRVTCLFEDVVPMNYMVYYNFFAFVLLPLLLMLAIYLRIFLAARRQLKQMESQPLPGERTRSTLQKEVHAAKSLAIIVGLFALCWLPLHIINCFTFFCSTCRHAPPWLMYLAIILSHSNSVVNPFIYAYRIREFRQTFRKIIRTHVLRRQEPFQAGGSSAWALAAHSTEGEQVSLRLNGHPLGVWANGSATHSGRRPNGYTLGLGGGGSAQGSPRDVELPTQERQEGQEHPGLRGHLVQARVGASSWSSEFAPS

SMILES	Ki [1]	Ki [2, 3]	Ki (A2)/Ki (A1) [2]	further results
CCCn1c(=O)c2[nH]c(-c3ccc(OCC(=O)NCCNC(=O)Cc4cccs4)cc3)nc2n(CCC)c1=O [Compound 46]	147 ± 5 nM	18.3 ± 3 nM	8.1	–
Cn1c(=S)c2[nH]c(C3CCCC3)nc2n(C)c1=S [Compound 52]	11500 nM	40.5 ± 6.6 nM	285	–
CCCn1c(=O)c2[nH]c(-c3ccc(OCC(=O)NCCNC(=O)[C@H](N)CCCCNC(=O)OCc4ccccc4)cc3)nc2n(CCC)c1=O [Compound 40]	191 ± 13 nM	–	30	–
CCCn1c(=O)c2[nH]c(-c3ccc(OCC(=O)NCCN(C)C)cc3)nc2n(CCC)c1=O [Compound 34]	5.03 ± 0.54 nM	–	1.8	–
CCCn1c(=S)c2[nH]c(C3CCCC3)nc2n(CCC)c1=O [Compound 55, 8-cyclopentyl-1,3-dipropyl-6-thioxanthine]	3360 nM	15.5 ± 1.5 nM	217	fold less potent at A1-receptors [2]: 17 fold
CCCn1c(=O)c2[nH]c(-c3ccc(OCC(=O)N(C)CCN(C)C)cc3)nc2n(CCC)c1=S [Compound 37, (8-[2-Dimethylaminoethyl[N-methylamino[carbonyl[methyl[oxyphenyl]]]]]-2-thio-1,3-dipropylxanthine)]	24.5 ± 8.4 nM	2.57 ± 0.67 nM	–	–
Cn1c(=S)c2[nH]c(-c3ccccc3)nc2n(C)c1=O [Compound 56]	11300 nM	1380 nM	8.18	–
CCCn1c(=O)c2[nH]c(-c3ccc(OCC(=O)NCCNC(=O)[C@H](N)CCCCN)cc3)nc2n(CCC)c1=O [Compound 42]	–	0.87 ± 0.09 nM	210	Ki [1, 4]: 180 nM
CCCn1c(=O)c2[nH]c(-c3ccc(OCC(=O)NCCNC(=O)CCCCCCC(=O)NCc4cccs4)cc3)nc2n(CCC)c1=O [Compound 49]	–	7.44 ± 0.98 nM	85	Ki [1, 4]: 630 ± 160 nM
CCCn1c(=O)c2[nH]c(-c3ccc(OCC(=O)NCCN)cc3)nc2n(CCC)c1=S [Compound 31]	26.3 ± 1.76 nM	2.69 ± 0.77 nM	9.8	A2 affinity/potency, in words [1]: enhanced over the oxygen analog; A1 affinity/potency, in words [2]: with less affinity at A1 -receptors than the corresponding oxygen analog
CCCn1c(=S)c2[nH]c(C3CCCC3)nc2n(CCC)c1=S [Compound 53]	2780 nM	4.87 ± 0.82 nM	572	A2 affinity/potency, in words [1]: intermediate in potency between the corresponding 2-thio and 6-thio analogs; A1 affinity/potency, in words [2]: intermediate in potency between the corresponding 2-thio and 6-thio analogs
CCCn1c(=O)c2[nH]c(-c3ccc(OCC(=O)NCCNC(=O)[C@H](N)CCCCNC(=O)OCc4ccccc4)cc3)nc2n(CCC)c1=S [Compound 41]	322 ± 17 nM	–	36	–
CCn1c(=S)c2[nH]c(-c3ccccc3)nc2n(CC)c1=O [Compound 57]	3510 nM	1010 nM	3.47	fold less potent at A2-receptors ([1]; 6-thio analog 57 versus DPX, 24): 12 fold; fold less potent at A1-receptors [2]: 23 fold
Cn1c(=O)c2[nH]c(C3CCCC3)nc2n(C)c1=S [Compound 13]	1390 nM	8 nM	170	–
CCCn1c(=O)c2[nH]c(-c3ccc(OCC(=O)NCCNC(=O)[C@H](N)CCCCN)cc3)nc2n(CCC)c1=S [Compound 43]	46.8 ± 9.4 nM	–	3.6	–
Cn1c(=O)c2[nH]c(-c3ccsc3)nc2n(C)c1=O [Compound 18]	841 ± 109 nM	152 ± 27 nM	5.53	A2 affinity/potency, in words [1]: Preference for 3-thienyl derivatives was evident particularly at the A2 -subtype
CCCn1c(=O)c2nc(-c3ccc(OCC(=O)NCCNC(=O)CCCCCCC(=O)ON4C(=O)CCC4=O)cc3)[nH]c2n(CCC)c1=S [Compound 45, N-Succinimidyl 8-[2-[4-(6-Carboxy-n-hexyl)carbonylaminoethyl[amino[carbonyl[methyloxyphenyl]]]]]-1,3-dipropyl-2-thioxanthine]	–	–	–	Ki [2]: 33.5 nM
CCCn1c(=O)c2[nH]c(-c3ccc(OCC(=O)NCCNC)cc3)nc2n(CCC)c1=S [Compound 33]	–	2.4 ± 0.28 nM	–	–

Source: US5453426A, “Sulfur-containing xanthine derivatives as adenosine antagonists” (priority 1994, dated 1995)
